Experimental findings from patent publication US10617734B2, “STAT3 and ERK signal pathway inhibitor comprising mogrosides and analogs thereof” (BEIJING UNIVERSITY OF AGRICULTURE, priority 2014, dated 2020) are described below.

Assay [1] relates to phosphorylated ERK1/2 (P-ERK1/2). Description: Western Blotting of phosphorylated ERK1/2 in U937 cells. It counts as cell-based. The settings on record: 10 μmol/L, 24 hours. The method, then: (§1) The inhibition of the STAT3 and ERK signal pathways achieved by Mogroside I E1, Mogroside II A2 and mogrol was detected by Western Blotting, specifically:
Group 1: histiocytic lymphoma U937 cells (1×10^6 cells/well) were inoculated into a 6-well culture plate for staying overnight, and 0 and 10 μmol/L of Mogroside I E1, Mogroside II A2 and mogrol were added respectively, and the culture was continued for 24 hours;
(§2) After the termination of the cell culture, the culture solution was removed, and the residue was washed with PBS (0.01 mol/L, pH 7.4), and then a cell lysis solution containing protease inhibitors was added at an amount of 50 μl/well, and the mixture was placed in an ice bath for lysis at 4° C. for 30 min and then centrifuged at 14000 r/min for 10 min, and then total proteins were obtained from the supernatant;
(§3) The protein concentrations were measured with bovine serum albumin (BSA) as the standard. 50 μg of the total proteins was separated by polyacrylamide gel electrophoresis with 12% […], electrophoretically transferred to a PVDF membrane (polyvinylidene fluoride membrane), and blocked for 1 h by 5% of skim milk (containing 0.1% of Tween 20), and then antibodies p-STAT3 (Tyr705) and p-Erk1/2 as well as β-actin were added, and the primary antibody was incubated at 4° C. overnight (β-actin was used as reference in loading amount); the membrane was washed for 3 times with TBS-T, 5 min each time; secondary antibody marked by horseradish peroxidase (HRP) was added for incubation at room temperature for 1 h, the membrane was washed for 3 times with a wash solution (TBS-T), 10 min each time, and then ECL was added for incubation in dark for 5 min, and subsequently, a fluorescence imaging analyzer was used for image development and scanning analysis, and the results of Western Blotting detection are shown in FIGS. 4 to 6.

Assay [2] deals with phosphorylated STAT3 (P-STAT3, Tyr705). Kind of assay: Western Blotting of phosphorylated STAT3 in A875 cells. The format is cell-based, human. Conditions: melanoma A875 cells, 10 μmol/L, 24 hours. Here is the method: as §1
Group 2: human melanoma A875 cells (1×10^6 cells/well) were inoculated into a 6-well culture plate for staying overnight, and 0 and 10 μmol/L of Mogroside I E1, Mogroside II A2 and mogrol were added respectively, and the culture was continued for 24 hours;
as §2, §3

Assay [3] relates to cycle regulatory protein P21. Kind of assay: Western Blotting of P21 in U937 cells. It counts as cell-based. Conditions: 10 μmol/L, 24 h. The method, then:
(§4) The STAT3 and ERK signal pathways can regulate cyclins and apoptosis genes, and in order to verify the effects of […] and mogrol, the expression status of downstream genes of STAT3 and ERK was detected, wherein the influences of the three mogrosides and analogs thereof, i.e. Mogrol I E1, Mogrol II A2 and mogrol, on Bcl-2 and P21 proteins in the histiocytic lymphoma U937 cells, human melanoma A875 cells and leukemia cells K562 were determined, respectively.
(§5) The regulation of Bcl-2 and P21 proteins by mogrosides and analog thereof to the was detected by Western Blotting, specifically: histiocytic lymphoma U937 cells, human melanoma A875 cells and leukemia cells K562 (1×10^6 cells/well) were inoculated into a 6-well culture plate overnight, and 0 and 10 μmol/L of the mogrosides and analogs thereof were added respectively, and kept cultured for 24 h. […]
(§6) The protein concentration was measured with bovine serum albumin (BSA) as the standard. 50 μg of the total proteins were separated by polyacrylamide gel electrophoresis with 12% SDS, and electrophoretically transferred to a PVDF membrane (polyvinylidene fluoride membrane), and blocked for 1 h by 5% of skim milk (containing 0.1% of Tween 20), and then antibodies P21, Bcl-2 and β-actin were added, wherein the primary antibody was incubated at 4° C. overnight (β-actin was used as reference loading amount); the membrane was washed for 3 times with TBS-T, 5 min each time; secondary antibody marked by horseradish peroxidase (HRP) was added for incubation at room temperature for 1 h, the membrane was washed with rinse solution (TBS-T) for 3 times, 10 min each time, and then ECL was added for incubation in dark for 5 min, and subsequently, a fluorescence imaging analyzer was used for image development and scanning analysis.

Assay [4] has as its system anti-apoptotic protein Bcl-2. Description: Western Blotting of Bcl-2 in A875 cells. It counts as cell-based. The settings on record: human melanoma A875 cells, 10 μmol/L, 24 h. The method, then:
as §4, §5, §6

In assay [5] the test system is lymphoma U937 cells. Kind of assay: Cell apoptosis, Annexin V-FITC/PI, flow cytometer. The format is cell-based. The settings on record: 10 μmol/L, 24 h. Here is the method: (§7) Lymphoma U937 cells, human melanoma A875 cells and leukemia cells K562 in logarithmic growth phase were selected, and after the respective culture with 0 and 10 μmol/L of the mogrosides and analogs thereof (i.e. Mogroside I E1, Mogroside II A2 and mogrol) for 24 h, cells were collected and washed twice with 200 μl of cold PBS, and then the cells were collected again; 100 μl of binding buffer was added for re-suspending the cells, and after the addition of 2 μl of Annexin V-FITC and well mixing, the resulting mixture was placed in dark at room temperature for 10 min, and then 5 μl of propidium iodide (PI) was added and then well mixed; the mixture was placed in dark at room temperature for 10 min, and detected by flow cytometer, and the results are shown in FIGS. 13-15.

In assay [6] the test system is human melanoma A875 cells. Description: Cell apoptosis, Annexin V-FITC/PI, flow cytometer. It counts as cell-based. Conditions: 10 μmol/L, 24 h. Here is the method:
Mogroside I E1, Mogroside II A2 and mogrol) for 24 h, cells were collected and washed twice with 200 μl of cold PBS, and then the cells were collected again; 100 μl of binding buffer was added for re-suspending the cells, and after the addition of 2 μl of Annexin V-FITC and well mixing, the resulting mixture was placed in dark at room temperature for 10 min, and then 5 μl of propidium iodide (PI) was added and then well mixed; the mixture was placed in dark at room temperature for 10 min, and detected by flow cytometer, and the results are shown in FIGS. 13-15.

The next assay concerns leukemia cells K562. Kind of assay: Cell apoptosis, Annexin V-FITC/PI, flow cytometer. The format is cell-based, human. The settings on record: leukemia cells K562, 10 μmol/L, 24 h. The method, then: as §7
Assay [7] has as its system human melanoma A875 cells. Description: Cell morphology, Hoechst 33258 staining, fluorescence microscope. The settings on record: A875 melanoma cells, 10, 100 and 250 μmol/L, 24-hour culture. The format is cell-based. The method, then:
(§8) Lymphoma U937 cells, human melanoma A875 cells and leukemia cells K562 in logarithmic growth phase were selected, and the concentrations of the cells were adjusted to 1×10^4 cells/mL, and the cells were transferred to a 6-well plate for culture, and after the 24-hour culture, drugs were added to achieve final concentrations of 0, 10, 100 and 250 μmol/L, wherein only whole medium was added to the negative control groups, while Mogroside II A2 was added to the positive control groups, after 24-hour culture, waste solution was removed, and fixing solution was added to each well for fixing for 25 min, and then the resulting mixture was washed twice, 3 min each time, and then Hoechst 33258 staining solution was added for staining in dark at room temperature for 30 min, and the cell morphology variation was observed using a fluorescence microscope.

For assay [8], the system named is lymphoma U937 cells. The description is as above. The format is cell-based. The settings on record: lymphoma U937 cells, 10, 100 and 250 μmol/L, 24-hour culture. The method, then:
as §8

Take `C[C@H](CC[C@@H](O)C(C)(C)O)[C@H]1CC[C@@]2(C)[C@@H]3CC=C4[C@@H](CC[C@H](O)C4(C)C)[C@]3(C)[C@H](O)C[C@]12C` [mogrol]: the “expression level of phosphorylated ERK1/2 (P-ERK1/2)” value in assay [1] is given as “significantly decreased”. In [2], the “expression level of phosphorylated STAT3 (P-STAT3)” value was “significantly decreased”. The “expression of cycle regulatory protein P21” value in assay [3] was “significantly up-regulated”. For the same molecule, the “expression of anti-apoptotic protein Bcl-2” value in assay [4] is reported as “significantly down-regulated”. The cell apoptosis result (in the assay on lymphoma U937 cells [5]; in [6]; with leukemia cells K562) was “induce the apoptosis” in each case. The “cell morphology variation (Hoechst 33258)” value (in assay [7]; in the assay on lymphoma U937 cells [8]) was “identical to the results of Mogroside II A2” in each case.
